Measurements from patent US8110585B2, “Bicyclic compound and pharmaceutical use thereof” (Takeda Pharmaceutical Company Limited, priority 2007, dated 2012).

Assays:
[1] = target: T1, human melatonin 2 receptors (human MT2 receptors) (Homo sapiens, UniProt P49286); experiment: Melatonin receptor binding inhibitory test, 2-[125I] Iodomelatonin, MT2; settings: membrane fraction of CHO-hMT2 cells, 25° C. for 2.5 hr, read-out: binding inhibitory activity as IC50 value for MT2
T1 construct: expressed in transfected cells; membrane fraction
T1 sequence (P49286 1-362): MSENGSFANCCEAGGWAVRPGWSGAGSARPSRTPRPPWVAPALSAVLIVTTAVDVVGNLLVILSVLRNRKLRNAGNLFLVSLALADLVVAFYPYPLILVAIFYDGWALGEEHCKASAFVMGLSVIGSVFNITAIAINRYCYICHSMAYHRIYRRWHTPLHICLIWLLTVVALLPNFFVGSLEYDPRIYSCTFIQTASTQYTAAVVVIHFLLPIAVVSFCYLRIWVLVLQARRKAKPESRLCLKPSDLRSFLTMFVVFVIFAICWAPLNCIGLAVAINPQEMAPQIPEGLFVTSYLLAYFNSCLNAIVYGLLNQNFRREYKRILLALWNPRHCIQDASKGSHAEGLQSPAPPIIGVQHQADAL
Experimental: (§1) Melatonin Receptor Binding Inhibitory Test
(2) Preparation of CHO-hMT2 Cells Expressing Human Melatonin 2 Receptors
A cDNA fragment (SEQ ID NO: 2) encoding full-length of human melatonin 2 receptors (human MT2 receptors) was incorporated into expression vector pCMV-Script (Stratagene, #212220) to give the plasmid that was pCMV-human MT2 receptors expression vector for animal cell expression. CHO-K1 cells (ATCC, #CCL-61) were plated at the concentration of 1.5×10^5 cells/cm^2 in a 6 well plate (ASAHI TECHNO GLASS), and cultured under the conditions of 37° C., 5% CO2 for 24 hr. For gene transfection, solution obtained by blending pCMV-human MT2 receptors expression vector (1.9 μg), Lipofectamine Transfection Reagent (Invitrogen, #18324-012) (11.3 μL) and Minimum Essential Medium Eagle (MEM) medium (Sigma, M8042) (93.8 μL), and reacting at room temperature for 20 min was added to the cells per one well. The transfected cells were cultured in MEM medium containing 10% FBS (Life Technology) and 300 μg/mL Geneticin (GIBCO, #10131), and the cell line that stably expressed the plasmid gene was selected. By a receptor binding assay using 2-[^125I] Iodomelatonin, CHO-hMT2 cell line showing specific binding of 2-[^125I] Iodomelatonin was selected from the obtained clones.
(§2) (3) Preparation of Cellular Membrane Fraction of CHO Cell (CHO-hMelR7 and CHO-hMT2) Stably Expressing Human MT1 and MT2 Receptors
(§3) CHO-hMelR7 and CHO-hMT2 cells were plated using Cellfactory (Nunc, #170009) under the conditions of 1×10^8 cells/2000 mL/flask. The cells were grown to confluent, and recovered by the following method. As the medium for CHO-hMelR7 and CHO-hMT2, MEM a containing 10% FBS and penicillin/streptomycin was used. […]
(§4) The medium was discarded, cells were washed twice with 200 mL of EDTA/PBS(−), 200 mL of EDTA/PBS(−) was further added, and the cells were stood still at room temperature for 20 min until they were released. The cells were recovered in four 50 mL tubes (Becton Dickinson, #352070), and centrifuged at 1,500 rpm for 10 min at 4° C. using a low speed cooling centrifuge (Hitachi, CF7D2). The supernatant was discarded, the pellets in the four tubes were suspended in 10 mL of PBS(−), and combined in one tube (Becton Dickinson, #352070). The mixture was further centrifuged at 1,500 rpm for 10 min at 4° C., and the obtained pellets were suspended in 20 mL of ice-cooled homogenizing buffer [10 mM NaHCO3, 5 mM EDTA, Protease inhibitor Complete (Roche), pH 7.4]. The cell suspension was homogenized 3 times using a polytron homogenizer at 20,000 rpm for 30 sec. The obtained homogenate was centrifuged (2,000 rpm, 10 min, 4° C.) using a low speed cooling centrifuge. The supernatant was recovered in an ultracentrifugation tube and ultracentrifuged (40,000 rpm, 60 min, 4° C.) using an ultracentrifuge (Beckman, L-90K). To the obtained pellets was added a suspending buffer [50 mM Tris-HCl, 1 mM EDTA, Protease inhibitor Complete (Roche), pH 7.4], and the pellets were suspended by pipetting. The protein concentration of this suspension was measured, diluted to 2 mg/mL to give cellular membrane fractions of CHO-hMelR7 and CHO-hMT2 cells. The membrane fractions were dispensed to 1.5 mL tubes (Eppendorf, #0030120.086) by 100 μL, preserved in a freezer (−80° C.) and used for a binding assay. Protein was quantified using BCA protein assay kit (Pierce) with BSA as the standard.
(§5) (4) Preparation of Membrane Fraction Suspension
(§6) Immediately before use, the membrane fractions of CHO-hMelR7 and CHO-hMT2 cells of the above-mentioned (3) were diluted 20-fold with assay buffer (50 mM Tris-HCl, pH 7.7).
(§7) (5) Preparation of 2-[^125I] Iodomelatonin Solution
(§8) 2-[^125I] Iodomelatonin (#NEX236, PerkinElmer) was diluted with the assay buffer to 400 pM for MT1 and 1 nM for MT2.
The assay buffer (80 μL) of the above-mentioned (4) was added to each well of a 96-well plate (type 3363, Corning). […]

[2] = target: T2, human melatonin 1 receptors (human MT1 receptors) (Homo sapiens, UniProt P48039); experiment: Melatonin receptor binding inhibitory test, 2-[125I] Iodomelatonin, MT1; settings: membrane fraction of CHO-hMelR7 cells, 25° C. for 2.5 hr, read-out: binding inhibitory activity as IC50 value for MT1
T2 construct: expressed in transfected cells; membrane fraction
Experimental: as §1
(1) Preparation of CHO-hMelR7 Cells expressing Human Melatonin 1 Receptors
A cDNA fragment (SEQ ID NO: 1) encoding full-length of human melatonin 1 receptors (human MT1 receptors) was incorporated into expression vector pAKKO-111H (former name pAKKO1.11H; Biochim Biophys Acta. Vol. 1219(2), pp. 251-259, 1994) to give plasmid pAKKO-hMelR7 for animal cell expression. CHO/dhfr-cells (ATCC, #CRL-9096) were plated at a concentration of 0.3×10^6 cells/dish in a 6 cm culture dish (Becton Dickinson), and cultured under the conditions of 37° C., 5% CO2 for 48 hr. The cells were transfected with pAKKO-hMelR7 plasmid DNA (5 μg) using Cellphect Transfection Kit (Amersham, #27-9268-01). The transfected cells were cultured in Dulbecco's modified Eagle medium (DMEM) (Sigma, #D6046) containing 10% dialyzed FBS (Biowest, #S180D), 1× Non-Essential Amino Acid (Invitrogen, #11140-050) and 50 μg/mL Gentamycin (Invitrogen, #15750-060), and the cell line that stably expressed the plasmid gene was selected. By a receptor binding assay using 2-[^125I] Iodomelatonin, CHO-hMelR7 cell line showing specific binding of 2-[^125I] Iodomelatonin was selected from the obtained clones.
as §2, §3, §4, §5, §6, §7, §8
The assay buffer (80 μL) of the above-mentioned (4) was added to each well of a 96-well plate (type 3363, Corning). Then, a test compound (compound solution diluted with DMSO to 200-fold of the final measurement concentration) was added by 2 μL. […]

T2 sequence (P48039 whole entry): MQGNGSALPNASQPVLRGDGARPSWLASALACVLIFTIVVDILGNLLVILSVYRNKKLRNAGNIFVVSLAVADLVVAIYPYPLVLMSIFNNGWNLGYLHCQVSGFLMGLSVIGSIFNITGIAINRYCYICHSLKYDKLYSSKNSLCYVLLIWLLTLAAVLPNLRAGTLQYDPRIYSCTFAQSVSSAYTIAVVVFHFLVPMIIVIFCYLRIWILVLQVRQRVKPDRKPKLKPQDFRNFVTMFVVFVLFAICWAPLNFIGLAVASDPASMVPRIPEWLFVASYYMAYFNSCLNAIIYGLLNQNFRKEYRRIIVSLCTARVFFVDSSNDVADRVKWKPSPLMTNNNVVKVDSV

| Compound | IC50 [1] [µM] | IC50 [2] [µM] | melting point [°C] |
| --- | --- | --- | --- |
| CC(=O)NCC1CC1c1cccc2nc(C)nn12 (stereo not drawn) [Example 56, N-{[2-(2-methyl[1,2,4]triazolo[1,5-a]pyridin-5-yl)cyclopropyl]methyl}acetamide] | ≤ 0.1 | ≤ 0.1 | 124 to 126 |
| CCC(=O)NC[C@@H]1C[C@H]1c1cccc2nn(C)cc12 (relative stereo) [Example 2, trans-N-{[2-(2-methyl-2H-indazol-4-yl)cyclopropyl]methyl}propanamide] | ≤ 0.1 | ≤ 0.1 | 104 to 106 |
| CC(=O)NCC1CC1c1cccc2nnsc12 (stereo not drawn) [Example 60, N-{[2-(1,2,3-benzothiadiazol-7-yl)cyclopropyl]methyl}acetamide] | ≤ 0.1 | ≤ 0.1 | 81 to 82 |
| CC(=O)NC[C@@H]1C[C@H]1c1cccc2nn(C)c(F)c12 [Example 19, N-{[(1R,2R)-2-(3-fluoro-2-methyl-2H-indazol-4-yl)cyclopropyl]methyl}acetamide] | ≤ 0.1 | ≤ 0.1 | 138 to 139 |
| CC(=O)NC[C@@H]1C[C@H]1c1cccc2nn(C)c(F)c12 (relative stereo) [Example 18, trans-N-{[2-(3-fluoro-2-methyl-2H-indazol-4-yl)cyclopropyl]methyl}acetamide] | ≤ 0.1 | ≤ 0.1 | 109 to 111 |
| CC(=O)NCC1CC1c1ccc(F)c2nn(C)cc12 (stereo not drawn) [Example 38, N-{[2-(7-fluoro-2-methyl-2H-indazol-4-yl)cyclopropyl]methyl}acetamide] | ≤ 0.1 | ≤ 0.1 | 147 to 148 |
| CCC(=O)NCC1CC1c1c(Cl)ccc2nn(C)cc12 (stereo not drawn) [Example 28, N-{[2-(5-chloro-2-methyl-2H-indazol-4-yl)cyclopropyl]methyl}propanamide] | ≤ 0.1 | ≤ 0.1 | 152 to 153 |
| COc1ccc2nn(C)cc2c1C1CC1CNC(C)=O (stereo not drawn) [Example 37, N-{[2-(5-methoxy-2-methyl-2H-indazol-4-yl)cyclopropyl]methyl}acetamide] | ≤ 0.1 | ≤ 0.1 | 104 to 105 |
| CCCC(=O)NC[C@@H]1C[C@H]1c1cccn2nc(C)cc12 (relative stereo) [Example 45, trans-N-{[2-(2-methylpyrazolo[1,5-a]pyridin-4-yl)cyclopropyl]methyl}butanamide] | ≤ 0.1 | ≤ 0.1 | 82 to 84 |
| Cc1cc2c([C@@H]3C[C@H]3CNC(=O)C(F)(F)F)cccn2n1 (relative stereo) [Example 46, trans-2,2,2-trifluoro-N-{[2-(2-methylpyrazolo[1,5-a]pyridin-4-yl)cyclopropyl]methyl}acetamide] | ≤ 0.1 | ≤ 0.1 | 136 to 138 |
| CC(=O)NCC1CC1c1ccc(Cl)c2nn(C)cc12 (stereo not drawn) [Example 39, N-{[2-(7-chloro-2-methyl-2H-indazol-4-yl)cyclopropyl]methyl}acetamide] | ≤ 0.1 | ≤ 0.1 | 153 to 155 |
| CC(=O)NCC1CC1c1c(-c2ccccc2)ccc2nn(C)cc12 (stereo not drawn) [Example 34, N-{[2-(2-methyl-5-phenyl-2H-indazol-4-yl)cyclopropyl]methyl}acetamide] | ≤ 0.1 | ≤ 0.1 | 156 to 158 |
| CC(=O)NC[C@@H]1C[C@H]1c1cccn2nc(C)cc12 (relative stereo) [Example 5, trans-N-{[2-(2-methylpyrazolo[1,5-a]pyridin-4-yl)cyclopropyl]methyl}acetamide] | ≤ 0.1 | ≤ 0.1 | 114 to 115 |
| CC(=O)NC[C@H]1C[C@@H]1c1cccc2nn(C)cc12 [Example 10, N-{[(1S,2S)-2-(2-methyl-2H-indazol-4-yl)cyclopropyl]methyl}acetamide] | ≤ 0.1 | ≤ 0.1 | 145 to 147 |
| CC(=O)NC[C@@H]1C[C@H]1c1cccc2nn(C)cc12 (relative stereo) [Example 1, trans-N-{[2-(2-methyl-2H-indazol-4-yl)cyclopropyl]methyl}acetamide] | ≤ 0.1 | ≤ 0.1 | 153 to 154 |
| CC(=O)NCC1CC1c1cccc2nscc12 (stereo not drawn) [Example 62, N-{[2-(2,1-benzisothiazol-4-yl)cyclopropyl]methyl}acetamide] | ≤ 0.1 | ≤ 0.1 | 96 to 97 |
| CCC(=O)NC[C@@H]1C[C@H]1c1cccn2nc(C)cc12 (relative stereo) [Example 6, trans-N-{[2-(2-methylpyrazolo[1,5-a]pyridin-4-yl)cyclopropyl]methyl}propanamide] | ≤ 0.1 | ≤ 0.1 | 95 to 98 |
| CCC(=O)NCC1CC1c1cccc2nscc12 (stereo not drawn) [Example 63, N-{[2-(2,1-benzisothiazol-4-yl)cyclopropyl]methyl}propanamide] | ≤ 0.1 | ≤ 0.1 | 84 to 86 |
| CCC(=O)NCC1CC1c1cccc2nc(C)cn12 (stereo not drawn) [Example 53, N-{[2-(2-methylimidazo[1,2-a]pyridin-5-yl)cyclopropyl]methyl}propanamide] | ≤ 0.1 | ≤ 0.1 | 88 to 90 |
